Data set [1] is described as follows: pH titration of 75 mg/mL Formula (VI) in WFI with 1.0N HCl. In kind it is physicochemical. To be noted: 75 mg/mL in water titrated with hydrochloric acid. The method, then: A solution of 75 mg/mL compound was prepared by dissolving in WFI and gently mixing for 16-24 hours prior to the titration. The titration of compound with a strong acid provided information for this compound in terms of “apparent” pKa.
In addition, this mixing would allow oxidation of trace Mn (II) compound to the higher oxidation state of Mn (III). The drug solution was titrated with 1.0 N HCl at 30 μL increments.
About 10 g of WFI was placed in the container including stir bar. […] The solution was them mixed at room temperature for 16-24 hours. At the end of the 16-24 hour hold/mix, the solution was titrated from its starting pH of about 9 down to pH 3 using 1N HCl.
Due to a big molecular structure (MW=1033), the sample preparation required an unusually long mixing process for 16-24 hours in order to complete the dissociation of drug and the oxidation of trace […] compound into a higher oxidation state of Mn (III). This mixing process was crucial to achieve the final pH equilibrium.

The nature of data set [2]: Study 3: various strengths of Formula (VI) in WFI at pH 7.0, with and without ascorbic acid. In kind it is physicochemical. The method, then: Ascorbic acid was also included in this study. […] The samples were tested and evaluated for physicochemical stability under 2-8 and 60° C. storage conditions after 0, 3, 7 and 14 days.
About 10 g of WFI was placed in the container including a stir bar. […] The pH was measured and the solution was mixed at room temperature for 16-24 hours. At the end of the 16-24 hour hold/mix, the pH of solution was adjusted to pH 7.0 with either HCl or NaOH and mixed for about 15 minutes. The solution was filtered through a PVDF, 0.22 μm filter by discarding about 1 mL prior to placing about 9-10 mL into each of two separate clean containers. The pH of the samples was then measured.
About 10 g of WFI was placed in the container including a stir bar. […] About 0.1026 g of Ascorbic Acid was added to the container while mixing. […] The pH was measured and the solution was mixed at room temperature for 16-24 hours. At the end of the 16-24 hour hold/mix, the pH of solution was adjusted to pH 7.0 with either HCl or NaOH and mixed for about 15 minutes. The solution was filtered through a PVDF, 0.22 μm filter by discarding 1 mL prior to placing about 9-10 mL into each of two separate clean containers. The pH of the samples was then measured.
About 10 g of WFI was placed in the container including a stir bar. […] About 0.103 g of Ascorbic Acid was added to the container while mixing. […] The pH was measured and the solution was mixed at room temperature for 16-24 hours. At the end of the 16-24 hour hold/mix, the pH of solution was adjusted to pH 7.0 with either HCl or NaOH and mixed for about 15 minutes. The solution was filtered through a PVDF, 0.22 μm filter by discarding about 1 mL prior to placing about 9-10 mL into each of two separate clean containers. The pH of the samples was then measured.
Following preparation of the solutions, one container of each of solutions 1-6 was stored at 2-8° C. The remaining containers for each of solutions 1-6 were stored at 60° C. From each container, a sample was taken at 0, 3, 7 and 14 days and the pH of the solution was measured.

For “[5,10,15,20-tetrakis(1,3-diethylimidazolium-2-yl)porphyrinato]manganese(III) chloride hydrate complex [Formula (VI)]”, the “"apparent" pKa” value in data set [1] came to 9.02. In data set [2] (100 mg/mL refrigerated sample without ascorbic acid, after 3 day storage), this substance registered a pH increase of approximately 1 pH unit. In data set [2] (100 mg/mL sample without ascorbic acid, 60° C., after 14 days), the “pH decrease compared to the control sample” value is given as approximately 2 pH units. Moreover, the degradation in data set [2] (65, 75, 100 mg/mL in water pH 7 containing ascorbic acid, 60° C., after 14 days) is recorded as 3-5%; in data set [2] (65, 75, 100 mg/mL in water pH 7 without ascorbic acid, 60° C., after 14 days) it was 3-5%. This substance also registered a pH decrease in data set [2] (65 and 75 mg/mL samples without ascorbic acid, 60° C., after 14 days) of approximately 2 pH units. In addition, the pH stability result in data set [2] (65 and 75 mg/mL samples without ascorbic acid, refrigerated condition) was “relatively stable”. Besides, the “pH increase from initial pH” value in data set [2] (all refrigerated samples containing ascorbic acid, after 14 days) is reported as approximately 1.5 pH units. Further, the “pH decrease from initial pH” value in data set [2] (samples containing ascorbic acid, 60° C., after 3 days) is approximately 2 pH units. Also, the pH rise back in data set [2] (samples containing ascorbic acid, 60° C., after 14 days) is 1-1.5 pH units.

The record behind these values is patent publication US20160333019A1, “SYNTHESIS AND FORMULATIONS OF PORPHYRIN COMPOUNDS” (Aeolus Sciences, Inc., priority 2013, published 2016).
